Measured values as given in publication PMC3827205, “Discovery and Characterization of a Novel Cyclic Peptide That Effectively Inhibits Ephrin Binding to the EphA4 Receptor and Displays Anti-Angiogenesis Activity” (PLoS ONE, 2013).
Several values for one entry are separate records, joined by “and”; a condition that tells them apart may be missing. Equal entries are not always repeated. Positions of bridges follow the written chain, without caps; N, C: chain ends. Residues, ends and D or L forms follow the SMILES beside them. No end group written: not given here.

How the values were obtained:
EphA4 Fc = test: Phage binding assay (phage-displayed peptide on EphA4 Fc); design: species or system mouse; settings: 4 μg/ml EphA4 Fc coating, room temperature, 2 h, HRP-anti-M13, ABTS, 405 nm, versus BSA control
Protocol: A pre-made library consisting of a disulfide-constrained nonapeptide (Ph.D.-C7C) library (New England Biolabs, Beverly, MA) was used for panning on EphA4. Recombinant mouse EphA4 Fc Chimera protein (R&D Systems, Minneapolis, MN) was incubated overnight at 4°C in 96-well ELISA plate wells at concentrations of 10 μg/ml in coating buffer (0.1 M NaHCO3). Wells were blocked for 1 h with blocking buffer (0.1 M NaHCO3, 5 mg/ml BSA, 0.02%NaN3), and rinsed with TBST (0.1% Tween20 in TBS). In round 1 of panning, 5×10^10 plaque-forming units (PFUs) of the phage library in 100 μl TBST were incubated for 1h at room temperature in EphA4 receptor-coated wells. After washing, the remaining bound phage were eluted with 100 μl of 0.2 M glycine-HCl (pH 2.2), and then neutralized by 15 μl 1M Tris-HCl (pH9.1). The entire eluate was used to infect early-log phase ER2738 host bacteria and amplified (4.5 h, 37 °C). The phage were concentrated and stored according to the manufacturer’s recommendations. In rounds 2, 3, and 4, we added 4.9×10^10, 1.81×10^11, 1.95×10^11 PFUs of the amplified phage pool from the previous round, respectively, to an EphA4 Fc-coated well and a BSA coated well. The phages were panned as described for round 1, except eluted phages were tittered prior to amplification to assess enrichment.
Phages binding to EphA4 receptor-coated plates were quantified using an anti-phage antibody conjugated to horseradish peroxidase (M13 phage detection kit, Amersham Pharmacia Biotech, Piscataway, NJ) with 2,2-azino-bis(3-ethylbenzthiazoline-6-sulfonic acid) as substrate. A 50 μl of 4 μg/ml EphA4 Fc or 5 mg/ml BSA (as a negative control) in coating buffer (0.1 M NaHCO3) was incubated overnight at 4°C in 96-well ELISA plate wells. Wells were blocked for 30 minutes with blocking buffer, and rinsed with TBST. A 50 μl of amplified phage was added to each well and incubated at room temperature for 2 h. […] Absorbance of each well was read at 405 nm with a Synergy 2 reader (BioTek, Synergy 2). […]

[1] = biological target: T1, EphA4 Fc Chimera protein / ephrinA5 (Mus musculus, UniProt Q03137); test: ELISA-based binding assay: inhibition of ephrinA5 AP binding to immobilized EphA4 Fc; format: biochemical
T1 construct: using the immobilized EphA4 extracellular domain fused to human Fc; purchased R&D Systems, Minneapolis, MN
T1 sequence (Q03137 20-547 limits assumed, change not shown): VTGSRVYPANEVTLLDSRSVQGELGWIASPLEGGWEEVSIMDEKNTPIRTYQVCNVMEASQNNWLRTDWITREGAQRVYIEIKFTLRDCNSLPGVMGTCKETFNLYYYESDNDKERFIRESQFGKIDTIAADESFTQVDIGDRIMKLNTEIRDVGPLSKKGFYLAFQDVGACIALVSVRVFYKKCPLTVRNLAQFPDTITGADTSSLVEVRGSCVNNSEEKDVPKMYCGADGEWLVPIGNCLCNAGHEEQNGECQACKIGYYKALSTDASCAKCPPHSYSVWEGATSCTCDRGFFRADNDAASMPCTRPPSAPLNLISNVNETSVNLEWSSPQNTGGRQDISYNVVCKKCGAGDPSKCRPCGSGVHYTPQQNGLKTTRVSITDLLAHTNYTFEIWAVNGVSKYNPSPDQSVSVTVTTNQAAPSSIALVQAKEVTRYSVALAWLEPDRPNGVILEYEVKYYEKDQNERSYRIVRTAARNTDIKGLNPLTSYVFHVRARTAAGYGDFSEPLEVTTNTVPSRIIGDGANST
Protocol: For Eph receptor binding studies, 50 μl of ephrin A5 (5 μg/ml, kindly provided by Dr. Elena B. Pasquale, Sanford-Burnham Medical Research Institute) was coated onto each well on a 96-well ELISA plate (Corning, #3690) overnight at 4°C. The wells were blocked with 100 μl blocking buffer (Pierce, #37543) for 1 h and then rinsed with PBS. A 1 μg of recombinant mouse EphA4 Fc Chimera protein (R&D Systems, Minneapolis, MN) in EIA buffer (1% BSA, 0.05% Tween 20 in TBS) was then incubated in each well for 1.5 h at room temperature. The EphA4 Fc-coated wells were rinsed with PBS buffer and incubated for 1.5 h with different peptide concentrations and same amount of alkaline phosphatase (AP)-tagged ephrin A5 in a total volume of 50 μl. After the unbound peptide and ephrin had been washed away, bound ephrin-A5 AP was quantified using p-nitrophenylphosphate as a substrate by a Synergy2 reader (BioTek, Winooski, VT) with wavelength of 405 nm. Data were fitted using nonlinear regression. IC50 values were calculated using Prism (GraphPad Software Inc.).

HUVEC = HUVEC viability assay (CellTiter-Blue); format: cell-based, human; settings: for cytotoxic effects on HUVECs: 48 h, 37°C, CellTiter-Blue, fluorescence 540Ex/600Em, at least three independent experiments
Protocol: The cytotoxic effects of the TYY cyclic peptide were measured at different concentrations by plating 1×10^4 HUVEC cells (ATCC) per well in 96-well plates and determining cell survival. Cells were treated with various concentrations of TYY (10 μM and 20 μM) and incubated in an incubator with a 5% CO2 and 95% humidity atmosphere at 37°C for 24 h and 48 h. After incubation, cell viability was measured using a CellTiter-Blue assay kit (Promega) according to the manufacturer’s instructions. Briefly, 20 μl of CellTiter-Blue reagent was added to 100 μl of culture media and cells were incubated for 2-4 hours at 37°C. Afterward, fluorescence at 540Ex/600Em was measured using a fluorescence plate reader (BioTek, Synergy 2). Each experimental data point was generated from at least three independent experiments.
Figure 3 Effects of the TYY cyclic peptide on viability of HUVEC cells. The HUVECs were treated with the indicated concentrations of the TYY peptide. A 0.1% DMSO control was used because the highest concentration of the DMSO vehicle in the TYY solutions was 0.1%. The cell viability was determined by CellTiter-Blue assays 24 h and 48 h after addition of TYY. Each experimental data point was generated from at least three independent experiments.

EphA4 = settings: ref [25]; cited from earlier work
From the text: A promising strategy for anti-angiogenic cancer therapies is to antagonize Eph-ephrin interactions by interfering with the Eph receptor/ephrin system. Several different synthetic peptides and small molecules have been studied for this purpose; the advantage of these artificial ligands is that they can show a much higher selectivity compared to the physiological ephrin ligands.

## CSWYWPLPC (disulfide 1-9) [disulfide-constrained cyclic nonapeptide c[…] from M13 phage display library]
EphA4 Fc
  binding of phage clones to EphA4 Fc: significant binding
[1]; 50 μM peptide, ELISA, 1.5 h
  inhibition of ephrin A5 binding to EphA4: 40%
[1]; dose dependence
  inhibition of EphA4 binding with AP-tagged ephrinA5 (in words): dose-dependent inhibition

## CC(C)C[C@@H]1NC(=O)[C@@H]2CCCN2C(=O)[C@H](Cc2c[nH]c3ccccc23)NC(=O)[C@H](Cc2ccc(O)cc2)NC(=O)[C@H](Cc2ccc(O)cc2)NC(=O)[C@H]([C@@H](C)O)NC(=O)[C@@H](N)CSSC[C@@H](C(N)=O)NC(=O)[C@@H]2CCCN2C1=O [TYY] (H-CTYYWPLPC-NH2; disulfide 1-9)
[1]; 100 nM peptide, ELISA, 1.5 h, three independent measurements
  inhibition of EphA4-ephrinA5 binding: 24.8%
[1]; 100 μM peptide, ELISA, 1.5 h, three independent measurements
  inhibition of EphA4-ephrinA5 binding: 94.06% and 94%
[1]; ELISA, ephrin A5-coated plate, EphA4 Fc, AP-tagged ephrin A5, 1.5 h incubation, p-nitrophenylphosphate, 405 nm, nonlinear regression (Prism), three independent measurements
  IC50: 11.7 µM
HUVEC; 10 μM
  cytotoxic effects on HUVECs: no cytotoxic effects on HUVECs
HUVEC; 20 μM
  cytotoxic effects on HUVECs: no cytotoxic effects on HUVECs
HUVEC; concentrations up to 20 μM
  cytotoxic effects in HUVECs: no cytotoxic effects in the HUVECs

## CLMTSQFRC (disulfide 1-9) [cyclic nonapeptide c[…] from M13 phage display library, tested on phage]
EphA4 Fc
  binding of phage clones to EphA4 Fc: significant binding

## CWPIKVGWC (disulfide 1-9) [cyclic nonapeptide c[…] from M13 phage display library, tested on phage]
EphA4 Fc
  binding of phage clones to EphA4 Fc: significant binding

## KYLPYWPVLSSL [linear 12-residue KYL peptide (…), positive control, reference compound]
EphA4
  artificial ligand of EphA4: act as artificial ligands
[1]; 25 μM, positive control, ELISA, 1.5 h, three independent measurements
  inhibition of EphA4-ephrinA5 binding: 92%
